From PMC8667043, “First-in-Class Inhibitors of the Ribosomal Oxygenase MINA53” (Journal of Medicinal Chemistry, 2021)

Assays:
HEK293T = experiment: MTT cell viability assay; format: cell-based, human; conditions: 72, 96, 120 h
Description: Human commercially available established cancer cell lines HT-29 colon carcinoma (ATCC, HTB-38), U-87MG glioblastoma (ATCC, HTB-14), and MNK-45 gastric cancer (a gift from Dr. M. Broggini, Mario Negri Institute) were cultured in RPMI medium (Euroclone, Milan, IT) supplemented with 10% inactivated fetal bovine serum (HyClone, Thermo Scientific, South Logan, UT), 1% L-glutamine (Euroclone), and 100 μg/mL penicillin/streptomycin (Euroclone). HEK293T and HeLa cells were cultured in Dulbecco’s Modified Eagle Medium (DMEM, Gibco) supplemented with 10% (v/v) fetal bovine serum (FBS, Sigma) and 100 international units/mL (IU/mL) penicillin and 100 μg/mL streptomycin (Gibco). The cells were routinely tested for mycoplasma contamination and STR-authenticated.
Twenty-four hours following seeding, exponentially growing cells were treated with the different compounds at concentrations ranging from 10 to 100 μM for 72–120 h. Aqueous DMSO (0.5%, v/v) was used as a control (untreated). Cell viability was determined by the 3-(4,5-dimethylthiazol-2-yl)-2,5-diphenyltetrazolium bromide (MTT) colorimetric assay (Sigma-Aldrich). In summary, exponentially growing cancer cells were seeded in sextuplicate in 96-well culture plates (1.5 × 10^3 cells/well). After 24 h, the compounds were added at concentrations ranging from 10 to 100 μM. The effect of compounds on cancer cell proliferation was assessed by measuring the MTT dye absorbance of the cells as reported.[52] […] The effect of different compounds or combinations (drug concentration ratio 1:20, doxorubicin: compound) on U-87MG cancer cell viability was assessed by measuring the MTT dye absorbance of cells. The interaction between doxorubicin (Doxo) and different compounds was evaluated based on the combination index (CI) using the CI equation through CalcuSyn software (Biosoft, Cambridge, U.K.). […]
Figure S17. Antiproliferative effects of M INA53 inhibitors on HeLa (A) and HEK293T (B) cells as determined by the MTT method after exposure for 72, 96, and 120 h to the negative control 1, and the MINA53 inhibitors 9 and 10. […]

HA-tagged MINA53 = biological target: T1, HA-tagged MINA53 (Homo sapiens, UniProt Q8IUF8); experiment: Substrate trapping by anti-HA immunoprecipitation (RPL27A); format: cell-based; conditions: HEK293T, HeLa, U-87MG cells; 100 μM, 18 h
T1 construct: expressed in transfected cells; host or cells: HEK293T, HeLa, U-87MG (transient, pEF6 vector)
T1 sequence (Q8IUF8 whole entry): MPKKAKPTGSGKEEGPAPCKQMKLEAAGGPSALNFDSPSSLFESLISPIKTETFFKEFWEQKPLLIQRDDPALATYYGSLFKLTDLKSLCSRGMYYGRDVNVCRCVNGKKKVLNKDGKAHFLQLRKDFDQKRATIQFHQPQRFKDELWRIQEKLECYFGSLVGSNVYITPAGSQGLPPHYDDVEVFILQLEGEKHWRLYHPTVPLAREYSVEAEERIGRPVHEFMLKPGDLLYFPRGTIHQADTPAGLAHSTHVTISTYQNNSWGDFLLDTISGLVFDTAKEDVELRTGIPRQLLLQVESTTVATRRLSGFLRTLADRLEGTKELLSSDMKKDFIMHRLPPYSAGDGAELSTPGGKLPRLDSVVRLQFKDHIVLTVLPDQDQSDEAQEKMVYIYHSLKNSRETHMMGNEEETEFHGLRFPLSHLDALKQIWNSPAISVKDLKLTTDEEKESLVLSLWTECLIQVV
Description: Proteins were transferred onto nitrocellulose or PVDF membranes and incubated with rabbit γ-H2AX (#9718, Cell Signaling Technologies, MA) anti-GAPDH (Sc47724, Santa Cruz Biotechnology, Santa Cruz, CA), rabbit anti-RPL27A (Abcam, ab74731), goat anti-RPL8 (Abcam, ab63941), horseradish peroxidase (HRP)-conjugated anti-HA (Roche, 12013819001), and HRP-conjugated anti-β-actin (Abcam, ab-49900).
For immunoprecipitation, the cells were harvested on ice and lysed by rotation for 1 h at 4 °C in JIES buffer. The cell debris was subsequently pelleted by centrifugation (10 min at 21 910g at 4 °C), and the supernatant was incubated overnight at 4 °C with Pierce anti-HA agarose beads (Thermo Scientific, 26181). The next day, the beads were washed 6 times with JIES buffer before the immunoprecipitates were eluted for 15 min at 1400 rpm at room temperature using 1 mg/mL HA peptide (Thermo Scientific, 26184) dissolved in JIES buffer. The eluted samples were then prepared in 1× Laemmli loading buffer (6x: 125 mM Tris-HCl [pH 6.8], 6% (w/v) SDS, 50% (v/v) glycerol, 225 mM dithiothreitol (DTT), and 0.1% (w/v) bromophenol blue) and boiled for 5 min for detection by western blot.
Plasmid DNA transfections were performed using a FuGENE 6 transfection reagent (Promega, E2691). Briefly, a transfection mix of DNA and transfection reagent at a ratio of 1:3 was made up in Opti-MEM (Gibco, 31985070) and incubated for 30 min at room temperature before the complexes were added to the cells. A total of 500 ng of DNA was used per mL of culturing medium. The cells were seeded 24 h prior to transfection, and cell treatments were performed 24 h post-transfection.
Figure S18. MINA53 substrate trapping with inhibitors 9 and 10 in cells. HEK293T (A), HeL a (B) and U-87MG (C) cel ls transiently expressing an empty (EV), wild- type (WT) or catalytically […]
control for 18 h prior toanti -HAimmunoprecipitation (IP). Anti -HA IPs were immunoblotted for RPL27A (17 kDa) and HA. β -Actin was used as loading control. […]

U-87MG cells [1] = experiment: Flow cytometric analysis of cell cycle distribution and Sub-G1 peak (PI staining); format: cell-based, human; conditions: 24 h; for accumulation of cells in the G2/M phase of the cell cycle / percentage of apoptotic cells (Sub-G1), compound alone: 10 μM; for percentage of apoptotic cells (Sub-G1), with doxorubicin: 10 μM compound + doxorubicin 0.5 μM
Description: Cell cycle distribution and apoptosis were assayed by staining floating and adherent cells with propidium iodide ([…] RNase A and 20 μg/mL propidium iodide) for 45 min. Flow cytometric analyses were performed using Epics XL apparatus (Beckman Coulter). Ten thousand events were collected from each sample, and data were processed using Flowing software.

U-87MG cells [2] = experiment: MTT cell viability, alone or in combination with doxorubicin; combination index; format: cell-based, human; conditions: for combination index value with doxorubicin: less than 1 synergistic, higher than 1 antagonist; for cell viability reduction in cotreatment with doxorubicin: 1 μM doxorubicin + 20 μM compound; for cell viability reduction in cotreatment with doxorubicin / cell viability, single compound treatment / sensitization of U-87MG cells to doxorubicin: 24 h
Description: Twenty-four hours following seeding, exponentially growing cells were treated with the different compounds at concentrations ranging from 10 to 100 μM for 72–120 h. Aqueous DMSO (0.5%, v/v) was used as a control (untreated). Cell viability was determined by the 3-(4,5-dimethylthiazol-2-yl)-2,5-diphenyltetrazolium bromide (MTT) colorimetric assay (Sigma-Aldrich). In summary, exponentially growing cancer cells were seeded in sextuplicate in 96-well culture plates (1.5 × 10^3 cells/well). After 24 h, the compounds were added at concentrations ranging from 10 to 100 μM. The effect of compounds on cancer cell proliferation was assessed by measuring the MTT dye absorbance of the cells as reported.[52] For combination treatments, the cells were treated with each of three compounds, either alone or in combination with doxorubicin. In particular, U-87MG cells were treated with doxorubicin alone or in combination with different MINA53 inhibitors for 24 h. The effect of different compounds or combinations (drug concentration ratio 1:20, doxorubicin: compound) on U-87MG cancer cell viability was assessed by measuring the MTT dye absorbance of cells. The interaction between doxorubicin (Doxo) and different compounds was evaluated based on the combination index (CI) using the CI equation through CalcuSyn software (Biosoft, Cambridge, U.K.). Synergism CI < 0.9, additivity 0.9 < CI < 1.1, antagonism CI > 1.1.

Row | Compound | effect on cell viability, HEK293T (HEK293T) | binding (trapping) of endogenous RPL27A substrate to HA-tagged MINA53 (HA-tagged MINA53) | accumulation of cells in the G2/M phase of the cell cycle (U-87MG cells [1]) | combination index value with doxorubicin (U-87MG cells [2]) | percentage of apoptotic cells (Sub-G1), with doxorubicin (U-87MG cells [1]) | percentage of apoptotic cells (Sub-G1), compound alone (U-87MG cells [1]) | cell viability reduction in cotreatment with doxorubicin (U-87MG cells [2]) | cell viability, single compound treatment (U-87MG cells [2]) | sensitization of U-87MG cells to doxorubicin (U-87MG cells [2])
1 | O=C(O)c1c[nH]c(=S)[nH]c1=O [compound 1] | no effect | not | not | higher than 1 |  |  |  |  | 
2 | O=C(O)c1cnc(SCCc2ccccc2)[nH]c1=O [compound 9, 2-(Phenethylthio)-3,4-dihydro-4-oxopyrimidine-5-carboxylic Acid] | sensitivity | increased binding | induced accumulation of cells in the G2/M phase | less than 1 | about 60% | about 30% | around 75% | reduced cell viability in a dose-dependent manner | dose-dependent sensitization
3 | O=C(O)c1cnc(SCCCc2ccccc2)[nH]c1=O [compound 10, 2-((3-Phenylpropyl)thio)-3,4-dihydro-4-oxopyrimidine-5-carboxylic Acid] | sensitivity | increased binding | induced accumulation of cells in the G2/M phase | less than 1 | about 60% | about 30% | around 75% | reduced cell viability in a dose-dependent manner | dose-dependent sensitization
